How the values were obtained:
[1] = 25–100 mg/kg intraperitoneal or oral, three weeks
HDAC6 = HDAC6 (Homo sapiens, UniProt Q9UBN7); details: HTPB 1 or 2 µM; class II HDAC from A549 cells
A549 cells [2] = details: A549, 5 µM, 24 hours
[3] = tested on: lung metastasis of 4T1-luc cells; details: cells pre-treated with 1.92 µM for 48 hours, injected via tail vein, imaged 13 days
HDAC8 = HDAC8 (Homo sapiens, UniProt Q9BY41); details: HTPB 1 or 2 µM; class I HDAC from A549 cells
[4] = tested on: acetylation of histone H3, histone H4 and p53; details: single dose 50 mg/kg intraperitoneal, after 2 hours
MMP-2 = details: A549 and H1299 cells, 2.5 µM, 48 hours
HDAC = details: Fig. S5, compared to MS275
[5] = tested on: 4T1-luc breast cancer cells; details: 1.92 µM, 48 hours
RhoA = details: A549 and H1299 cells, 2.5 µM, 48 hours
[6] = tested on: acetylation of histone H3, histone H4, p53 and tubulin; details: time- and dose-dependent, Western blot
H1299 cells [7] = details: H1299, 5 µM, 24 hours
in vitro [8] = details: human, A549 cells
MMP-9 = details: A549 and H1299 cells, 2.5 µM, 48 hours
A549 cells [9] = assay: cells; details: Homo sapiens, A549, 48 h, read-out: IC50 (cytotoxicity)
HDAC11 = HDAC11 (Homo sapiens, UniProt Q96DB2); details: HTPB 1 or 2 µM; class IV HDAC from A549 cells
[10] = tested on: IMR90 normal lung cell line; details: 0.5–10 µM, 48 hours, MTT
HDAC1 = HDAC1 (Homo sapiens, UniProt Q13547); details: HTPB 1 or 2 µM; class I HDAC from A549 cells
HDAC4 = HDAC4 (Homo sapiens, UniProt P56524); details: HTPB 1 or 2 µM; class II HDAC from A549 cells
H1299 cells [11] = assay: cells; details: Homo sapiens, NCI-H1299, 48 h, read-out: IC50 (cytotoxicity)
in vitro [12] = details: human, H1299 cells
[13] = tested on: 4T1-luc breast cancer cells; details: 1.92 µM, 48 hours; remark: listed apart in the source
[14] = tested on: A549 lung tumor xenograft; assay: In vivo anti-tumor growth assay; details: for tumor growth inhibition compared with DMSO control / tumor growth inhibition: 3 days/week for three weeks; for tumor growth inhibition: oral

Chain of HDAC1 (Q13547 whole entry): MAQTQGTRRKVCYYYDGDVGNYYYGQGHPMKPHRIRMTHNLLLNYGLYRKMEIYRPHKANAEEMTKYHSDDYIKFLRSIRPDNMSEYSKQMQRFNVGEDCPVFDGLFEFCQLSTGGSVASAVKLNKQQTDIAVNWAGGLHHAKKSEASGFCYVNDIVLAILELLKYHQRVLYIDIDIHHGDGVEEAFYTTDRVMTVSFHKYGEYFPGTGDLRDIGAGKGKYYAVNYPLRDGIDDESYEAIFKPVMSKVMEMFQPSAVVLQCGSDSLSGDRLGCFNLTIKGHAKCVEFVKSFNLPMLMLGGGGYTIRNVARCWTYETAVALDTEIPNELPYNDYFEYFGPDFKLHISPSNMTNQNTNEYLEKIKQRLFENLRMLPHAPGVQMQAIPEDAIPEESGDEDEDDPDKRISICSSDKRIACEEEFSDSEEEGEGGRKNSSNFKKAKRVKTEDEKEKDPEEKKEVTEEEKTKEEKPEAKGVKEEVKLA
Chain of HDAC4 (P56524 whole entry): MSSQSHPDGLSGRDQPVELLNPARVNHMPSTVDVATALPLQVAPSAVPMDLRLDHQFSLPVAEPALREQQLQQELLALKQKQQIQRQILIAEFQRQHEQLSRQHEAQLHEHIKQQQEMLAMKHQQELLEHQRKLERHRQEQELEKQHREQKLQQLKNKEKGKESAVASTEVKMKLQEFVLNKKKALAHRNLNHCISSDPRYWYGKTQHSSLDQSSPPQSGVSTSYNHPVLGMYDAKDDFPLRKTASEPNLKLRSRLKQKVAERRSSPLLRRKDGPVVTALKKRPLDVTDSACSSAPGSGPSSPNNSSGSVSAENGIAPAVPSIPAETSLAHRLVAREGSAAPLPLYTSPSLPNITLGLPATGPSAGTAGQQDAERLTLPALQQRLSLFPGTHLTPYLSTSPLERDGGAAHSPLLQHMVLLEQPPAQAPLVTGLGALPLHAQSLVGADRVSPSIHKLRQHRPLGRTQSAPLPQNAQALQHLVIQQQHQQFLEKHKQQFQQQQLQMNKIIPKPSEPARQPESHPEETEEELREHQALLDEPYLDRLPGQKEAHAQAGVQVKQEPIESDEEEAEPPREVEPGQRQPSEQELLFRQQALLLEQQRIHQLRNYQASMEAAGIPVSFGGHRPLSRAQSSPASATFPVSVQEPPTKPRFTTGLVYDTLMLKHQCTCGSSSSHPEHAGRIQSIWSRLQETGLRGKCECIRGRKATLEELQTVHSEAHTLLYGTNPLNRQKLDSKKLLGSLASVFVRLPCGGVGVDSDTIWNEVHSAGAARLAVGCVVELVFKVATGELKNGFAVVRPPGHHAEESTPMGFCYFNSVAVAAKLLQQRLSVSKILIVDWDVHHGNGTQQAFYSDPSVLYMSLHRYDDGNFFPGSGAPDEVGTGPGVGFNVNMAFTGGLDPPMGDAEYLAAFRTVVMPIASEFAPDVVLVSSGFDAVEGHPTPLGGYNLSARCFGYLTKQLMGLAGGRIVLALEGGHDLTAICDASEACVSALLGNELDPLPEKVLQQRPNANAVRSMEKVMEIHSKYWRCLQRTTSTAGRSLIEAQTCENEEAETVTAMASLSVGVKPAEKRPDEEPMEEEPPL
Chain of HDAC4 (O15379 whole entry, further chain): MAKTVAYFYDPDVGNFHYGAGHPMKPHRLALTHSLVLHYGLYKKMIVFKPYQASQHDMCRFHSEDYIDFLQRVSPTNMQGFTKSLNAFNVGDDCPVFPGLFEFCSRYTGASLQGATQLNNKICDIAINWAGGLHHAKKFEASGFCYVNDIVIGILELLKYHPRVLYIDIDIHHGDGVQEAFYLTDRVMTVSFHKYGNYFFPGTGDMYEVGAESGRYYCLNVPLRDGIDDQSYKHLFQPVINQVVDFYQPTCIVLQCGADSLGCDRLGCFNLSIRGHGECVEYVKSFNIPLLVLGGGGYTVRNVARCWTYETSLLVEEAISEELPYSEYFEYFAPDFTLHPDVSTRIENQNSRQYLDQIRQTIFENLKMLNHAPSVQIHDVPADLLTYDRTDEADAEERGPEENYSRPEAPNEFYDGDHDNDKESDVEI
Chain of HDAC4 (Q9Y618 whole entry, further chain): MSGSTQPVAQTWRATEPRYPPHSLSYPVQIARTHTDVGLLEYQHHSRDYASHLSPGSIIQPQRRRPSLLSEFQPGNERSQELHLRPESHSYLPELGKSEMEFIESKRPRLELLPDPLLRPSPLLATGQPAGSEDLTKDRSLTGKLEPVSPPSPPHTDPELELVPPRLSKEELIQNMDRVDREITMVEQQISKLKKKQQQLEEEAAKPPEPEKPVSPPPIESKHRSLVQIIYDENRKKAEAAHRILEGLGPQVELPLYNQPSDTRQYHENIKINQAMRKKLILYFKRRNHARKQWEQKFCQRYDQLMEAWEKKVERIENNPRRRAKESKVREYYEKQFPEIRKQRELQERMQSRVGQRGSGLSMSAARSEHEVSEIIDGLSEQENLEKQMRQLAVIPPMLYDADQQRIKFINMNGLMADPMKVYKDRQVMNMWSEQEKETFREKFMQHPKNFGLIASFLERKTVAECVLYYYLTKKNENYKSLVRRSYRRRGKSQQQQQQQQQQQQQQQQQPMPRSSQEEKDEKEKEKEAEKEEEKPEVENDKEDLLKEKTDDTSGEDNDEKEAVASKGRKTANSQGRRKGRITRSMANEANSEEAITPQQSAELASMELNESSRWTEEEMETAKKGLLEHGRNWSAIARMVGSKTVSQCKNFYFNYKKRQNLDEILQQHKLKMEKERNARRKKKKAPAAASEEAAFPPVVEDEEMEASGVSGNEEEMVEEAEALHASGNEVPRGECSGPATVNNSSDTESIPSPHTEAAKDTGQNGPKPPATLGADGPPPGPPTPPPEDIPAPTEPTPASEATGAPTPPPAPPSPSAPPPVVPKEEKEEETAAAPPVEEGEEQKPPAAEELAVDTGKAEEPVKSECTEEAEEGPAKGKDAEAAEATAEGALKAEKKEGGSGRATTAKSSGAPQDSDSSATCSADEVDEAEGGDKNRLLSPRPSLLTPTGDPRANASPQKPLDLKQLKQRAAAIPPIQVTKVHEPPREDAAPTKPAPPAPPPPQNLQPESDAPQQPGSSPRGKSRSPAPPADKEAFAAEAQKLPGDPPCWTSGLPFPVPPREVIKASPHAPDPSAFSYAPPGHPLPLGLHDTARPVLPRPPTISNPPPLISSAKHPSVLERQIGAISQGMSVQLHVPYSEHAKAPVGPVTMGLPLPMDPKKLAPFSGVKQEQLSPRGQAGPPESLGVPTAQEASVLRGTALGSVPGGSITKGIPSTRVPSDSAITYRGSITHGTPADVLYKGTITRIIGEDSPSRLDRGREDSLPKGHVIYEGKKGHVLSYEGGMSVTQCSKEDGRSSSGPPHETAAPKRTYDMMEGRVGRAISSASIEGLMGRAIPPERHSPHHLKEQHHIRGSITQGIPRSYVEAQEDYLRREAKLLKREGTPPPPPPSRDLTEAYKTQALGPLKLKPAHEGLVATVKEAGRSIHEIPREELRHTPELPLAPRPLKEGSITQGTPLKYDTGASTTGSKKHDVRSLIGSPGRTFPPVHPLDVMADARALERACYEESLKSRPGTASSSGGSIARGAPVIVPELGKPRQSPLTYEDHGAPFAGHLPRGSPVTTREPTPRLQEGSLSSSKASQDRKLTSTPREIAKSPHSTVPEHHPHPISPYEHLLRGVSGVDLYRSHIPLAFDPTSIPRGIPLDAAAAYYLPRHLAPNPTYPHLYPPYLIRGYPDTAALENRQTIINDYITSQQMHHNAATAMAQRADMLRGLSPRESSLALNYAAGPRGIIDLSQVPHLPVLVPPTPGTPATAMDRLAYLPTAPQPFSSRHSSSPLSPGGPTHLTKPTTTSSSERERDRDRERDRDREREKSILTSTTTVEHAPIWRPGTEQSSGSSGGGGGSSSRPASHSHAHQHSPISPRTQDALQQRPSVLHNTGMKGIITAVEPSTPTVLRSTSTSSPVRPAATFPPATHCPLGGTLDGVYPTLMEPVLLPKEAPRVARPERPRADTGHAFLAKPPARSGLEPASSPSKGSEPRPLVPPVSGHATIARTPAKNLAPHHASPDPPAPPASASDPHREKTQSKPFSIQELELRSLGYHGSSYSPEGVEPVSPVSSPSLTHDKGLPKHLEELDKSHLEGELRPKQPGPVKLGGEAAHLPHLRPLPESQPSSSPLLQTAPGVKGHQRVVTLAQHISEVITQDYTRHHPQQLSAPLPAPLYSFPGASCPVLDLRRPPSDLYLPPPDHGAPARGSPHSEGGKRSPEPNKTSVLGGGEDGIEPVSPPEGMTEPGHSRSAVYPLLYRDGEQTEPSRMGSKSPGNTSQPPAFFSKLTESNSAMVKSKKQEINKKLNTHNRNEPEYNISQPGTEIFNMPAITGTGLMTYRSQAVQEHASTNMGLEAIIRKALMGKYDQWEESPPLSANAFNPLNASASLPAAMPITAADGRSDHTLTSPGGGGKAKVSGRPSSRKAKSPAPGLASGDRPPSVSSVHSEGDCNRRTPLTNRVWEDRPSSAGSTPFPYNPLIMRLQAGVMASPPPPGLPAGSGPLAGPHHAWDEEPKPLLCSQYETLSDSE
Chain of HDAC8 (Q9BY41 whole entry): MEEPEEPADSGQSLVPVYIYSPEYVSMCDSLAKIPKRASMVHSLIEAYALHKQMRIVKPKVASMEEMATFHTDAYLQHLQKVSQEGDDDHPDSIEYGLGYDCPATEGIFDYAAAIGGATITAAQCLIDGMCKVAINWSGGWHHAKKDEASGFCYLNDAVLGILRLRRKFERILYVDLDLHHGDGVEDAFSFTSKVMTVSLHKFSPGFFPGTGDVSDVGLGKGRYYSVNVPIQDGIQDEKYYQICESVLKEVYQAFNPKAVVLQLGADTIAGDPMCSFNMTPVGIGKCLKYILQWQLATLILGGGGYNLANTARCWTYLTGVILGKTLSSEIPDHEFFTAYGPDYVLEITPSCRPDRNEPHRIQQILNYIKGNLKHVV

With `O=C(CCCc1ccccc1)Nc1ccc(C(=O)NO)cc1` [HTPB, N-Hydroxy-4-(4-phenylbutyryl-amino)benzamide] the “effect on body weight” value [1] was “did not adversely affect body weight”, the “toxicity by hematological biochemistry examinations (GOT, GPT, albumin, creatinine)” value [1] was “no detectable toxicity” and the “deacetylase activity of HDAC6” value (HDAC6) was “significantly inhibited”. For the same molecule, the caspase-3 activity (A549 cells [2]) was “significantly stimulated”, the caspase-9 activity (A549 cells [2]) was “significantly stimulated” and the “lung metastasis of 4T1-luc cells” value [3] was “significantly delayed lung metastasis”. For the same molecule, the “deacetylase activity of HDAC8” value (HDAC8) was “significantly inhibited”, the “acetylation of histone H3, histone H4 and p53 in tumor xenograft” value [4] was “profoundly increased” and the MMP-2 enzyme activity (MMP-2) was “significantly decreased”. For the same molecule, the “in vitro HDAC activity compared to MS275” value (HDAC) was “significant inhibition”, the “cell viability of 4T1-luc cells” value [5] was “did not change cell viability” and the “RhoA activity (RhoA-GTP)” value (RhoA) was “markedly decreased”. For the same molecule, the “acetylation of histone H3, histone H4, p53 and tubulin” value [6] was “induced acetylation”, the caspase-3 activity (H1299 cells [7]) was “significantly stimulated” and the caspase-9 activity (H1299 cells [7]) was “significantly stimulated”. For the same molecule, the viability at 48 h, 0.5 µM (in vitro [8]) was 87%, the viability at 48 h, 1 µM (in vitro [8]) was 80% and the MMP-9 enzyme activity (MMP-9) was “significantly decreased”. The IC50 (A549 cells [9]) was 1590 nM, the “deacetylase activity of HDAC11” value (HDAC11) was “significantly inhibited” and the “cytotoxicity towards IMR90 normal lung cell line” value [10] was “without showing apparent cytotoxicity”. For the same molecule, the “deacetylase activity of HDAC1” value (HDAC1) was “significantly inhibited”, the “deacetylase activity of HDAC4” value (HDAC4) was “significantly inhibited” and the IC50 (H1299 cells [11]) was 2190 nM. The viability at 48 h, 0.5 µM (in vitro [12]) was 94%, the viability at 48 h, 1 µM (in vitro [12]) was 85% and the “transwell migration capacities compared to the un-treated control” value [13] was 50%. For the same molecule, the “tumor growth inhibition compared with DMSO control” value ([14]; intraperitoneal, 25 mg/kg) was 80%, the “tumor growth inhibition compared with DMSO control” value ([14]; intraperitoneal, 50 mg/kg) was 94% and the “anti-tumor growth effect, times more potent than SAHA as assessed by tumor weight” value ([14]; intraperitoneal, tumor weight) was 2–4 times. The tumor growth inhibition ([14]; 50 mg/kg) was 39% and the tumor growth inhibition ([14]; 100 mg/kg) was 79%.
